In patent US8952024B2, “Herbicidal pyrimidone derivatives” (E I du Pont de Nemours and Company, priority 2009, dated 2015):

Key:
Test in all cases: Test D pre-/postemergence plant response
Format in all cases: in vivo
[1] = tested on: Italian ryegrass (Lolium multiflorum); details: Postemergence
Procedure, shortened: (§1)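 Under greenhouse conditions for 14 to 21 days, plants treated pre- or postemergence with surfactant-formulated compound were compared by eye with untreated controls and scored 0–100 (100 = complete control; dash = no result).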

[2] = tested on: Surinam grass (Brachiaria decumbens); details: Postemergence
Procedure, shortened: as §1

[3] = tested on: barnyardgrass (Echinochloa crus-galli); details: Postemergence, scale 0 to 100 (0 no effect, 100 complete control)
Procedure, shortened: as §1

[4] = tested on: black mustard (Brassica nigra); details: Postemergence, scale 0 to 100 (0 no effect, 100 complete control)
Procedure, shortened: as §1

[5] = tested on: chickweed (common chickweed, Stellaria media); details: Postemergence
Procedure, shortened: as §1

[6] = tested on: goosegrass (Eleusine indica); details: Postemergence
Procedure, shortened: as §1

[7] = tested on: green foxtail (Setaria viridis); details: Postemergence
Procedure, shortened: as §1

[8] = tested on: groundsel (common groundsel, Senecio vulgaris); details: Postemergence
Procedure, shortened: as §1

[9] = tested on: guineagrass (Panicum maximum); details: Postemergence
Procedure, shortened: as §1

[10] = tested on: johnsongrass (Sorghum halepense); details: Postemergence
Procedure, shortened: as §1

kochia (Kochia scoparia) = details: Postemergence
Procedure, shortened: as §1

[11] = tested on: large crabgrass (Digitaria sanguinalis); details: Postemergence
Procedure, shortened: as §1

[12] = tested on: morningglory (pitted morningglory, Ipomoea lacunosa); details: Postemergence
Procedure, shortened: as §1

[13] = tested on: nutsedge (purple nutsedge, Cyperus rotundus); details: Postemergence
Procedure, shortened: as §1

[14] = tested on: purslane (common purslane, Portulaca oleracea); details: Postemergence
Procedure, shortened: as §1

[15] = tested on: ragweed (common ragweed, Ambrosia elatior); details: Postemergence
Procedure, shortened: as §1

[16] = tested on: signalgrass (broadleaf signalgrass, Brachiaria platyphylla); details: Postemergence
Procedure, shortened: as §1

[17] = tested on: spanishneedles (Bidens bipinnata); details: Postemergence
Procedure, shortened: as §1

[18] = 62 g ai/ha, scale 0 to 100 (0 no effect, 100 complete control)
[19] = 125 g ai/ha, scale 0 to 100 (0 no effect, 100 complete control)
[20] = 250 g ai/ha, scale 0 to 100 (0 no effect, 100 complete control)

For COCCn1c(-c2cccc(F)c2)ncc(C(=O)C2=C(O)C3CCC(C3)C2=O)c1=O (stereo not drawn) [Compound 235], the “Plant response rating, Ryegrass, Italian” value ([1]; 31 g ai/ha, scale 0 to 100) was 5, the “Plant response rating, Ryegrass, Italian” value [1, 18] was 5 and the “Plant response rating, Ryegrass, Italian” value [1, 19] was 5. For the same compound, the “Plant response rating, Ryegrass, Italian” value [1, 20] was 35, the “Plant response rating, Surinam Grass” value ([2]; 31 g ai/ha, scale 0 to 100) was 75 and the “Plant response rating, Surinam Grass” value [2, 18] was 75. For the same compound, the “Plant response rating, Surinam Grass” value [2, 19] was 75, the “Plant response rating, Surinam Grass” value [2, 20] was 85 and the “Plant response rating, Barnyardgrass” value ([3]; 31 g ai/ha) was 80. The “Plant response rating, Barnyardgrass” value ([3]; 62 g ai/ha) was 80, the “Plant response rating, Barnyardgrass” value ([3]; 125 g ai/ha) was 95 and the “Plant response rating, Barnyardgrass” value ([3]; 250 g ai/ha) was 95. For the same compound, the “Plant response rating, Black Mustard” value ([4]; 31 g ai/ha) was 80, the “Plant response rating, Black Mustard” value ([4]; 62 g ai/ha) was 80 and the “Plant response rating, Black Mustard” value ([4]; 125 g ai/ha) was 98. The “Plant response rating, Black Mustard” value ([4]; 250 g ai/ha) was 98, the “Plant response rating, Chickweed” value ([5]; 31 g ai/ha, scale 0 to 100) was 5 and the “Plant response rating, Chickweed” value [5, 18] was 30. The “Plant response rating, Chickweed” value [5, 19] was 60, the “Plant response rating, Chickweed” value [5, 20] was 70 and the “Plant response rating, Goosegrass” value ([6]; 31 g ai/ha, scale 0 to 100) was 75. The “Plant response rating, Goosegrass” value [6, 18] was 75, the “Plant response rating, Goosegrass” value [6, 19] was 75 and the “Plant response rating, Goosegrass” value [6, 20] was 75. For the same compound, the “Plant response rating, Foxtail, Green” value ([7]; 31 g ai/ha, scale 0 to 100) was 70, the “Plant response rating, Foxtail, Green” value [7, 18] was 95 and the “Plant response rating, Foxtail, Green” value [7, 19] was 98. For the same compound, the “Plant response rating, Foxtail, Green” value [7, 20] was 98, the “Plant response rating, Groundsel” value ([8]; 31 g ai/ha, scale 0 to 100) was 100 and the “Plant response rating, Groundsel” value [8, 18] was 100. For the same compound, the “Plant response rating, Groundsel” value [8, 19] was 100, the “Plant response rating, Groundsel” value [8, 20] was 100 and the “Plant response rating, Guineagrass” value ([9]; 31 g ai/ha, scale 0 to 100) was 75. For the same compound, the “Plant response rating, Guineagrass” value [9, 18] was 75, the “Plant response rating, Guineagrass” value [9, 19] was 75 and the “Plant response rating, Guineagrass” value [9, 20] was 75. For the same compound, the “Plant response rating, Johnsongrass” value ([10]; 31 g ai/ha, scale 0 to 100) was 70, the “Plant response rating, Johnsongrass” value [10, 18] was 70 and the “Plant response rating, Johnsongrass” value [10, 19] was 85. For the same compound, the “Plant response rating, Johnsongrass” value [10, 20] was 85, the “Plant response rating, Kochia” value (kochia (Kochia scoparia); 31 g ai/ha, scale 0 to 100) was 20 and the “Plant response rating, Kochia” value (kochia (Kochia scoparia); [18]) was 60. The “Plant response rating, Kochia” value (kochia (Kochia scoparia); [19]) was 70, the “Plant response rating, Kochia” value (kochia (Kochia scoparia); [20]) was 85 and the “Plant response rating, Crabgrass, Large” value ([11]; 31 g ai/ha, scale 0 to 100) was 70. The “Plant response rating, Crabgrass, Large” value [11, 18] was 75, the “Plant response rating, Crabgrass, Large” value [11, 19] was 75 and the “Plant response rating, Crabgrass, Large” value [11, 20] was 80. For the same compound, the “Plant response rating, Morningglory” value ([12]; 31 g ai/ha, scale 0 to 100) was 75, the “Plant response rating, Morningglory” value [12, 18] was 75 and the “Plant response rating, Morningglory” value [12, 19] was 95. For the same compound, the “Plant response rating, Morningglory” value [12, 20] was 95, the “Plant response rating, Nutsedge, Purple” value ([13]; 31 g ai/ha, scale 0 to 100) was 5 and the “Plant response rating, Nutsedge, Purple” value [13, 18] was 5. For the same compound, the “Plant response rating, Nutsedge, Purple” value [13, 19] was 30, the “Plant response rating, Nutsedge, Purple” value [13, 20] was 40 and the “Plant response rating, Purslane” value ([14]; 31 g ai/ha, scale 0 to 100) was 60. The “Plant response rating, Purslane” value [14, 18] was 60, the “Plant response rating, Purslane” value [14, 19] was 60 and the “Plant response rating, Purslane” value [14, 20] was 70. For the same compound, the “Plant response rating, Ragweed” value ([15]; 31 g ai/ha, scale 0 to 100) was 70, the “Plant response rating, Ragweed” value [15, 18] was 70 and the “Plant response rating, Ragweed” value [15, 19] was 80. For the same compound, the “Plant response rating, Ragweed” value [15, 20] was 80, the “Plant response rating, Signalgrass” value ([16]; 31 g ai/ha, scale 0 to 100) was 65 and the “Plant response rating, Signalgrass” value [16, 18] was 90. For the same compound, the “Plant response rating, Signalgrass” value [16, 19] was 90, the “Plant response rating, Signalgrass” value [16, 20] was 95 and the “Plant response rating, Spanishneedles” value ([17]; 31 g ai/ha, scale 0 to 100) was 65. The “Plant response rating, Spanishneedles” value [17, 18] was 70, the “Plant response rating, Spanishneedles” value [17, 19] was 80 and the “Plant response rating, Spanishneedles” value [17, 20] was 85.

With COCCCn1c(-c2cccc(F)c2)ncc(C(=O)C2=C(O)C3CCC(C3)C2=O)c1=O (stereo not drawn) [Compound 238] the “Plant response rating, Ryegrass, Italian” value ([1]; 31 g ai/ha, scale 0 to 100) was 5, the “Plant response rating, Ryegrass, Italian” value [1, 18] was 5 and the “Plant response rating, Ryegrass, Italian” value [1, 19] was 5. The “Plant response rating, Ryegrass, Italian” value [1, 20] was 5, the “Plant response rating, Surinam Grass” value ([2]; 31 g ai/ha, scale 0 to 100) was 75 and the “Plant response rating, Surinam Grass” value [2, 18] was 75. For the same compound, the “Plant response rating, Surinam Grass” value [2, 19] was 75, the “Plant response rating, Surinam Grass” value [2, 20] was 85 and the “Plant response rating, Barnyardgrass” value ([3]; 31 g ai/ha) was 75. The “Plant response rating, Barnyardgrass” value ([3]; 62 g ai/ha) was 80, the “Plant response rating, Barnyardgrass” value ([3]; 125 g ai/ha) was 85 and the “Plant response rating, Barnyardgrass” value ([3]; 250 g ai/ha) was 95. For the same compound, the “Plant response rating, Black Mustard” value ([4]; 31 g ai/ha) was 80, the “Plant response rating, Black Mustard” value ([4]; 62 g ai/ha) was 95 and the “Plant response rating, Black Mustard” value ([4]; 125 g ai/ha) was 98. For the same compound, the “Plant response rating, Black Mustard” value ([4]; 250 g ai/ha) was 98, the “Plant response rating, Chickweed” value ([5]; 31 g ai/ha, scale 0 to 100) was 30 and the “Plant response rating, Chickweed” value [5, 18] was 35. The “Plant response rating, Chickweed” value [5, 19] was 40, the “Plant response rating, Chickweed” value [5, 20] was 50 and the “Plant response rating, Goosegrass” value ([6]; 31 g ai/ha, scale 0 to 100) was 50. For the same compound, the “Plant response rating, Goosegrass” value [6, 18] was 70, the “Plant response rating, Goosegrass” value [6, 19] was 75 and the “Plant response rating, Goosegrass” value [6, 20] was 75. For the same compound, the “Plant response rating, Foxtail, Green” value ([7]; 31 g ai/ha, scale 0 to 100) was 75, the “Plant response rating, Foxtail, Green” value [7, 18] was 80 and the “Plant response rating, Foxtail, Green” value [7, 19] was 80. For the same compound, the “Plant response rating, Foxtail, Green” value [7, 20] was 95, the “Plant response rating, Groundsel” value ([8]; 31 g ai/ha, scale 0 to 100) was 100 and the “Plant response rating, Groundsel” value [8, 18] was 100. The “Plant response rating, Groundsel” value [8, 19] was 100, the “Plant response rating, Groundsel” value [8, 20] was 100 and the “Plant response rating, Guineagrass” value ([9]; 31 g ai/ha, scale 0 to 100) was 25. The “Plant response rating, Guineagrass” value [9, 18] was 50, the “Plant response rating, Guineagrass” value [9, 19] was 65 and the “Plant response rating, Guineagrass” value [9, 20] was 75. For the same compound, the “Plant response rating, Johnsongrass” value ([10]; 31 g ai/ha, scale 0 to 100) was 60, the “Plant response rating, Johnsongrass” value [10, 18] was 70 and the “Plant response rating, Johnsongrass” value [10, 19] was 75. The “Plant response rating, Johnsongrass” value [10, 20] was 80, the “Plant response rating, Kochia” value (kochia (Kochia scoparia); 31 g ai/ha, scale 0 to 100) was 20 and the “Plant response rating, Kochia” value (kochia (Kochia scoparia); [18]) was 50. For the same compound, the “Plant response rating, Kochia” value (kochia (Kochia scoparia); [19]) was 65, the “Plant response rating, Kochia” value (kochia (Kochia scoparia); [20]) was 75 and the “Plant response rating, Crabgrass, Large” value ([11]; 31 g ai/ha, scale 0 to 100) was 50. The “Plant response rating, Crabgrass, Large” value [11, 18] was 70, the “Plant response rating, Crabgrass, Large” value [11, 19] was 75 and the “Plant response rating, Crabgrass, Large” value [11, 20] was 80. For the same compound, the “Plant response rating, Morningglory” value ([12]; 31 g ai/ha, scale 0 to 100) was 70, the “Plant response rating, Morningglory” value [12, 18] was 80 and the “Plant response rating, Morningglory” value [12, 19] was 80. For the same compound, the “Plant response rating, Morningglory” value [12, 20] was 90, the “Plant response rating, Nutsedge, Purple” value ([13]; 31 g ai/ha, scale 0 to 100) was 5 and the “Plant response rating, Nutsedge, Purple” value [13, 18] was 10. The “Plant response rating, Nutsedge, Purple” value [13, 19] was 20, the “Plant response rating, Nutsedge, Purple” value [13, 20] was 20 and the “Plant response rating, Purslane” value ([14]; 31 g ai/ha, scale 0 to 100) was 60. For the same compound, the “Plant response rating, Purslane” value [14, 18] was 60, the “Plant response rating, Purslane” value [14, 19] was 60 and the “Plant response rating, Purslane” value [14, 20] was 60. For the same compound, the “Plant response rating, Ragweed” value ([15]; 31 g ai/ha, scale 0 to 100) was 70, the “Plant response rating, Ragweed” value [15, 18] was 75 and the “Plant response rating, Ragweed” value [15, 19] was 75. For the same compound, the “Plant response rating, Ragweed” value [15, 20] was 75, the “Plant response rating, Signalgrass” value ([16]; 31 g ai/ha, scale 0 to 100) was 20 and the “Plant response rating, Signalgrass” value [16, 18] was 35. The “Plant response rating, Signalgrass” value [16, 19] was 60, the “Plant response rating, Signalgrass” value [16, 20] was 65 and the “Plant response rating, Spanishneedles” value ([17]; 31 g ai/ha, scale 0 to 100) was 65. The “Plant response rating, Spanishneedles” value [17, 18] was 70, the “Plant response rating, Spanishneedles” value [17, 19] was 70 and the “Plant response rating, Spanishneedles” value [17, 20] was 75.
